# Laboratory results published in patent US20170333390A1, “PHYTOCHEMICAL COMPOSITIONS INCLUDING SESAMIN FOR ANTI-INFLAMMATORY, ANTI-CYTOKINE STORM, AND OTHER USES” (CHIANG MAI UNIVERSITY, priority 2009, published 2017).
# System: cartilage tissue cultures exposed to IL-1 (ECM degradation, HA release)
# Assay: HA release from IL-1 exposed cartilage tissue cultures (ELISA)
# Type: cell-based
# Settings: relative to control culture, sulfate
# Protocol: Experiments were conducted to evaluate the anti-inflammatory effects of combinations of particular phytochemical compositions provided by the present disclosure with known substances, compositions, or drugs that are associated with an anti-inflammatory effect and/or an anti-degenerative or tissue integrity preservation effect in connective tissue. In the context of the present disclosure, the term “connective tissue” encompasses connective tissue proper (e.g., dense or fibrous connective tissue), as well as specialized connective tissue such as cartilage or bone. More specifically, experiments were conducted to evaluate the anti-inflammatory, anti-degenerative, and/or structural preservation effects of a combination of particular phytochemical compositions provided by the present disclosure with glucosamine sulfate. In addition, the experiments compared the anti-inflammatory/anti-degenerative effects of the combination of particular sesamin or sesamin-based phytochemical compositions provided by the present disclosure plus glucosamine sulfate, versus the anti-inflammatory/anti-degenerative effects of glucosamine sulfate alone.
# Hyaluronic acid (HA) is an important component of the extracellular matrix (ECM), as well as a major component of synovial fluid. HA is present in articular cartilage, and contributes to cartilage resilience. It is known that IL-1 stimulates the synthesis and activity of matrix metalloproteinases and other enzymes that are associated with cartilage degradation as well as rheumatoid arthritis and osteoarthritis. A set of experimental cartilage tissue cultures were prepared using cartilage tissue samples containing HA within their ECMs. As further detailed below, the experimental cartilage tissue cultures selectively incorporated glucosamine sulfate alone; sesamin alone; or a combination of glucosamine sulfate and sesamin. Additionally, a control cartilage tissue culture remained unexposed to either of sesamin or glucosamine sulfate.
# ECM degradation was induced in the experimental and control cartilage tissue cultures by exposing the cultures to IL-1. A measure or estimate of a cartilage tissue anti-degenerative effect was defined in accordance with an amount of HA that an experimental cartilage tissue culture released into the tissue culture medium relative to a reference or baseline amount of HA that was released into the tissue culture medium by the control cartilage tissue culture. More particularly, a percentage reduction in the amount of HA released into the tissue culture medium by a given experimental cartilage tissue culture relative to the amount of HA released into the tissue culture medium by the control cartilage tissue culture, indicated below as “Percentage (%) HA Reduction”, conveys or indicates the magnitude of an anti-degenerative or structural preservation effect provided by the experimental cartilage tissue culture under consideration. A corresponding measure or estimate of percentage (%) HA retention by cartilage tissue can also be defined based upon the experimental results. The amount or level of HA present in a given tissue culture medium was detected using ELISA, in a manner that can be understood by one of ordinary skill in the art.
compound,measurement,setting,value
"N[C@H]1C(O)O[C@H](CO)[C@@H](O)[C@@H]1O.O=S(=O)(O)O (stereo partly drawn) [Glucosamine Sulfate, glucosamine sulfate, reference compound]",Percentage (%) HA Reduction,"glucosamine sulfate 20 mM (9 mg/ml), listed as glucosamine sulfate",approximately 3%
same,Percentage (%) HA Reduction,glucosamine sulfate 20 mM (9 mg/ml),3%
same,Percentage (%) HA Reduction,"glucosamine sulfate 40 mM (18 mg/ml), listed as glucosamine sulfate",approximately 28%
same,Percentage (%) HA Reduction,glucosamine sulfate 40 mM (18 mg/ml),28%
same,Percentage (%) HA Reduction,"glucosamine sulfate 80 mM (36 mg/ml), listed as glucosamine sulfate",approximately 43%
same,Percentage (%) HA Reduction,glucosamine sulfate 80 mM (36 mg/ml),43%
